# Measured values: patent publication US20190054110A1, “MODULATORS OF CCR9 FOR TREATING TUMOR RESISTANCE TO IMMUNE RESPONSES” (DEUTSCHES KREBSFORSCHUNGSZENTRUM STIFTUNG DES ÖFFENTLICHEN …, priority 2016, published 2019)
# Key:
# MCF7 cells = assay: Chromium-release cytotoxicity assay, MCF7 cells lysed by survivin-specific T cells; format: cell-based, human; conditions: versus control / CCR9 knockdown
# Method: FIG. 1: CCR9 knockdown sensitizes tumor cells to immune attack (A) MCF7 cells were transfected with the described siRNA sequences and harvested after 72 h for mRNA and protein estimation using RT-PCR (upper) and immunoblot (lower) analysis, respectively. GAPDH and beta-actin were used as controls for RNA and protein normalization, respectively. (B) Luc-CTL cytotoxicity assay with PBMC-derived CTLs and bi-specific Ab as effector population and MCF7 as target cells, which were transfected with individual (s1-s4) or pooled CCR9 siRNA sequences. PD-L1 and non-specific control siRNAs were used as positive and negative controls, respectively, for CTL-mediated cytotoxicity. (C, D) Cr-release assay showing % specific lysis of MCF7 cells by survivin-specific T cells at different ratios upon CCR9 knockdown (C) or overexpression (D). MCF7 cells were transfected with either CCR9 siRNA s1 (Δ), pooled siRNA sequences (◯), positive control PD-L1 (□), and non-specific control siRNA (▪) (C) or with pCMV6-AC-His control vector (▪) and pCMV6-AC-His-CCR9 expression construct (∘) (D) 72 h prior to the assay. […] Error bars denote ±SEM, and statistical significance was calculated using the unpaired, two-tailed Student's t-test. […]
# CCR9+ tumor cells = assay: Transwell migration assay of CCR9+ tumor cells toward CCL25; format: cell-based
substance,measurement,setting,value
pertussis toxin,MCF7 lysis by survivin-specific CTL,MCF7 cells,did not elicit elevated tumor lysis
same,migration of CCR9+ tumor cells toward CCL25,CCR9+ tumor cells,inhibited
